Laboratory results taken from patent US20140286906A1, “USE OF IGF-1 IN THE MODULATION OF TREG CELL ACTIVITY AND THE TREATMENT AND PREVENTION OF AUTOIMMUNE DISORDERS OR DISEASES” (priority 2011, published 2014).
Like-named read-outs stand apart in the source and are kept apart here.

Assays:
[1] = test system: experimental autoimmune encephalomyelitis (EAE); format: in vivo
Experimental: Regarding EAE, clinical severity of the disease is scored using a grading score from 0 to 5, where 0 means no clinical signs and 5 means a moribund paralysed mouse. As the disease progresses the body is paralysed progressively from tail to upper limbs. In these experiments the protocol described by Stromnes and Goverman (2006) is used.
Shortly, single cell suspensions are prepared from the […] and spinal cord. The resulting cells are stained with anti-CD4 antibodies and separated using fluorescent-activated cell sorting. RNA is then extracted and purified and serves as a template for a quantitative RT-PCR reaction with Taqman probes. Finally, the relative amount of each mRNA compared to a house-keeping gene (Hprt) is determined.
Based on these and our previous observations, the inventors hypothesized that systemic and prolonged delivery of IGF-1 in mice developing EAE would increase and correctly localized Tregs and thus positively affect the course of the disease. The inventors therefore implanted subcutaneously the IGF-1 delivery devices and induced EAE in mice. […] In order to determine if the amelioration of the disease was associated with an increase in T regulatory function, the inventors performed immunohistochemical analysis to determine the number and localization of T regulatory cells in the spinal cord at the early stages of the disease. […] There was therefore a negative correlation between the number of Treg cells and the observed clinical score. Moreover, both clinical improvement and increased regulatory cell number associated with IGF-1 treatment were abolished by CTLA-4 blockade, which interferes with regulatory T cell function (FIG. 26; Herman et al., 2004).
The inventors induced EAE and mice and initiated the IGF-1 treatment when the first signs of paralysis appeared (FIG. 27).

[2] = test system: proinflamatory subsets Th1 (IFN-gamma+) and Th17 (IL-17+); assay: flow cytometry of polarized Th1 and Th17 subsets; format: cell-based; settings: 2 day polarization, 3 day incubation with recombinant IGF-1
Experimental: (§1) To determine the effect of IGF-1 in the regulatory subset in vitro (cf. FIG. 4) the number of FOXP3 positive cells is determined by flow cytometric analysis. To analyze other subsets, like the proinflammatory Th1 and Th17 subsets, a similar approach is used but the number of interferon-gamma (Th1) and IL-17 (Th17) positive cells is determined. Additionally, to evaluate the number of proliferating cells at a given moment cells are stained using the intracellular marker Ki67, which is expressed only in cycling cells. The combination of a specific lineage marker (e.g., Foxp3, IFN-g, IL-17) with Ki67 allows for the determination at a given moment of the cells belonging to a certain subset and their proliferative status.
An important aspect regarding the immunomodulatory properties of IGF-1 is the specificity of the effect for a certain cellular subset, in this case Tregs. If IGF-1 was a general anabolic factor affecting equally all subsets, it would no affect the balance of pro-inflammatory/anti-inflammatory players. In order to test the hypothesis that IGF-1 induces immune tolerance by specifically affecting the suppressive function, CD4 positive […] cells were polarized for two days into the IFN-gamma secreting Th1 subset and the IL-17 secreting Th17 subset and then incubated with IGF-1.

[3] = test system: experimental autoimmune encephalomyelitis (EAE); settings: cited from earlier work
[4] = test system: CD4+CD25- cells (T conventional cells); assay: Annexin V / living dye apoptosis flow cytometry, CD4+CD25- cells; format: cell-based, murine
Source text: The effects of IGF-1 on apoptosis can be measured by flow cytometry. By using a combination of a living dye and Annexin V staining it is possible to determine four different cell populations which correspond to non-apoptotic, necrotic, early and late apoptosis.
Initially, and in order to characterize the in vitro effects of IGF-1 on the different populations of the […] immune system, murine splenic CD4 positive cells were sorted by FACS based on the expression of CD25. This allows for the separation and enrichment of conventional T cells (CD25 negative) and regulatory T cells (CD25 positive). […] To exclude the possibility that the observed expansion was due to the anti-apoptotic properties of IGF-1, the cells in culture were stained with AnnexinV (a marker of apoptosis) and a vital dye, and then analyzed by flow cytometry.

CD25+ splenic CD4+ cells = assay: in vitro expansion of FACS-sorted splenic CD4+CD25+ cells; format: cell-based, murine; settings: TCR stimulation with anti-CD3 and anti-CD28 antibodies
Experimental: In a preferred embodiment for expanding Treg cells in vitro/ex vivo, IGF-1 is added at a certain concentration (e.g. between 1 and 100 ng/ml) in a medium that allows for the cells to survive and grow (e.g. in mice, RPM1 1640 plus 10% fetal calf serum plus other additives including beta-mercaptoethanol, Sodium Pyruvate, Penicillin/Streptomycin, L-Glutamine or equivalent defined media). Additionally, T cells are stimulated with anti-CD3. The costimulatory agent is an antibody or ligand specific for a TCR costimulator, such as CD28 (like in example 1) or GITR, as described below.
In animal experiments, the population is isolated normally from murine spleen (but also could be isolated from other tissues, like for example but not restricted to bone marrow, adipose tissue, cord blood derived mononuclear cell, thymus, or peripheral blood) and is sorted using different markers (e.g., CD4 and CD25). This population is defined as CD4+CD25+ and includes the regulatory cells. This population is then treated in the above-mentioned medium in the presence of IGF-1. After several days of culture part of the cells are counted, fixed, permeabilized and analyzed by flow cytometry using an anti-FOXP3 antibody in combination with the same extracellular markers (CD4 and CD25). This allows for the determination of the absolute number of FOXP3 positive cells present in the culture. […]

[5] = test system: FOXP3 positive cells (CD25+ splenic cells); assay: Foxp3 and Ki67 flow cytometric analysis of Treg proliferation; format: cell-based, murine
Experimental: as §1
In animal experiments, the population is isolated normally from murine spleen (but also could be isolated from other tissues, like for example but not restricted to bone marrow, adipose tissue, cord blood derived mononuclear cell, thymus, or peripheral blood) and is sorted using different markers (e.g., CD4 and CD25). This population is defined as CD4+CD25+ and includes the regulatory cells. This population is then treated in the above-mentioned medium in the presence of IGF-1. After several days of culture part of the cells are counted, fixed, permeabilized and analyzed by flow cytometry using an anti-FOXP3 antibody in combination with the same extracellular markers (CD4 and CD25). This allows for the determination of the absolute number of FOXP3 positive cells present in the culture.
To further define the proliferative effects of IGF-1, FACS-sorted CD25+ splenic cells (>98% purity) after two days in culture with recombinant IGF-1 were fixed, permeabilized and stained with antibodies against FOXP3 and Ki67. Foxp3 is a transcription factor that orchestrates the cellular and molecular programs involved in T regulatory function. Ki67 is a nuclear antigen present in proliferating cells. […] After three days of culture the number of FOXP3 positive cells was increased four-fold and the number of regulatory T cells proliferating approximately six-fold.

[6] = RT-PCR day 27, compared to control mice
[7] = dose response curve, 2 days stimulation

Substance: Insulin-like growth factor-1 [IGF-1]
- Foxp3 expression in CD4 positive cells of the spinal cord [1, 6]: increase
- IL-10 expression in CD4 positive cells of the spinal cord [1, 6]: increase
- IL-17 expression in CD4 positive cells of the spinal cord [1, 6]: decrease
- interferon-gamma expression in CD4 positive cells of the spinal cord [1, 6]: decrease
- Treg cell number in the spinal cord (immunohistochemistry) ([1]; early stages of the disease): increase in Treg cell number
- detrimental effect in EAE ([1]; mouse, in vivo): never showed a detrimental effect
- mortality ([1]; prophylactic or therapeutic manner, n=34, P=0.028): significantly reduced mortality
- clinical outcome (clinical grading) ([1]; prophylactic: delivery device implanted day -3, immunization day 0, 4 weeks, n=13): improved clinical outcome
- clinical severity ([1]; therapeutic: applied after onset of disease (day 11), P<0.05 from day 13): reduced clinical severity
- cells expressing IFN-gamma (Th1) [2]: no effect
- cells expressing IL-17 (Th17) [2]: no effect
- course of EAE ([3]; 10 mg/kg per day given after disease onset (Lovett-Racke et al.)): did not significantly alter the course of disease
- course of EAE ([3]; 10 mg/kg per day given before disease onset (Lovett-Racke et al.)): mild protection
- clinical course of EAE ([3]; administration during the acute phase (Cannella et al.)): some transient clinical amelioration
- clinical course of EAE ([3]; chronic phase (Cannella et al.)): no effect
- protection from apoptosis [4]: partially protected from apoptosis
- in vitro expansion of CD25 positive subset (CD25+ splenic CD4+ cells): consistently promoted the in vitro expansion
- dose range at which FOXP3 positive cells respond [5, 7]: falls within physiological ranges
- saturability of stimulated pathway/receptor [5, 7]: saturable
- increase in number of FOXP3 positive cells ([5]; three days of culture): four-fold
- increase in number of regulatory T cells proliferating ([5]; three days of culture): approximately six-fold
- double positive FOXP3 Ki67 population ([5]; two days in culture): increase
- number of FOXP3 positive cells ([5]; two days in culture): increase
